This passage reports IC50 results from paper PMC12251307, “One-Pot Synthesis of Novel Pyrimidine Derivatives with Potential Antidiabetic Activity Through Dual α-Glucosidase and α-Amylase Inhibitors” (Molecules, 2025).

For one assay, the target named is α-amylase. Put plainly: α-amylase activity assay (colorimetric kit). The assay is classed as biochemical. Conditions: IC50 ± SD, n = 5; acarbose as standard drug. On the procedure: (§1) All chemicals were supplied from Sigma-Aldrich (St. Louis, MO, USA). Melting points were determined via the Stuart SMP10 Digital Advanced MP apparatus (Cole-Parmer Ltd., Stone, UK) and are uncorrected. FTIR spectra were carried out on PerkinElmer (FTIR spectrometer, PerkinElmer Inc., Waltham, MA, USA), which mixed without using anhydrous KBr. The NMR spectra were recorded by JEOL RESONANCE spectrometer (Akishima, Japan) 500 MHZ by using DMSO-d6 as the solvent and chemical shifts (δ) and were recorded in parts per million (ppm) using tetramethyl silane (TMS) as the internal standard. The mass spectra were carried out on LC/MS spectroscopy (LCMS-8040 Shimadzu, Kyoto, Japan, model CAT-30A). Serial no. L20574900241 AE, 220–240 v~50/60 HZ 300 VA was used to record LCMS spectral data for samples. Elemental microanalysis was done on a Carlo Erba analyzer model 110 (Carlo Erba Instruments, Milan, Italy). Also used were α-amylase Assay Kit (Colorimetric) […] (Abcam, Cambridge, MA, USA), α-glucosidase Activity Assay Kit (Colorimetric) […] (Abcam, Cambridge, MA, USA), and Elisa: BioTek (Winooski, VT, USA) introduces Synergy Neo2 high performance Multi-Mode Microplate Reader.
The % inhibition was calculated as follows:% Inhibition = (Absorbancecontrol − Absorbancecompound) × 100/Absorbancecontrol

The next assay addresses α-glucosidase. The experiment in a line: α-glucosidase activity assay (colorimetric kit). Format: biochemical. Conditions: IC50 ± SD, n = 5; acarbose as standard drug. As for the experimental part:
as §1
The α-glucosidase activity assay was conducted as we reported earlier. Samples (50 μL) were added to 96 wells, and the volume was adjusted to 100 μL/well with an assay buffer. For the reaction, 50 μL of reaction mix for each reaction were performed by adding assay buffer 47 μL and substrate mix 3 μL.

Usually IC50 stands for the concentration that inhibits the measured activity by half. In the case of `COc1cc(NNC(=S)Nc2cccc(F)c2)nc(N)n1` [Compound 4, 2-(2-Amino-6-methoxypyrimidin-4-yl)-N-(3-fluorophenyl)hydrazine Carbothioamide], the IC50 stood at 11.1 ± 0.12 µM on α-amylase and 12.16 ± 0.12 µM on α-glucosidase.

In the case of `COc1cc(NNC(=S)Nc2cccc(Cl)c2)nc(N)n1` [Compound 6, 2-(2-Amino-6-methoxypyrimidin-4-yl)-N-(3-chlorophenyl) Hydrazine Carbothioamide], the IC50 on α-amylase was determined as 15.17 ± 0.07 µM; on α-glucosidase, 16.13 ± 0.11 µM.

Turning to `COc1cc(NNC(=S)Nc2cccc(Br)c2)nc(N)n1` [Compound 9, 2-(2-Amino-6-methoxypyrimidin-4-yl)-N-(3-bromophenyl)-hydrazine Carbothioamide], the concentration for half-maximal inhibition (IC50) worked out at 18.16 ± 0.08 µM on α-amylase and 19.11 ± 0.11 µM at α-glucosidase.

In the case of `COc1cc(NNC(=S)Nc2cccc([N+](=O)[O-])c2)nc(N)n1` [Compound 11, 2-(2-Amino-6-methoxypyrimidin-4-yl)-N-(3-nitrophenyl)hydrazine Carbothioamide], the IC50 came to 21.14 ± 0.12 µM on α-amylase and 22.11 ± 0.13 µM at α-glucosidase.

Regarding `COc1cccc(NC(=S)NNc2cc(OC)nc(N)n2)c1` [Compound 14, 2-(2-Amino-6-methoxypyrimidin-4-yl)-N-(3-methoxyphenyl)-hydrazine Carbothioamide], the IC50 at α-amylase is 33.18 ± 0.14 µM; on α-glucosidase, 30.12 ± 0.13 µM.

Regarding `COc1cc(NNC(=S)Nc2ccc(C)cc2)nc(N)n1` [Compound 16, 2-(2-Amino-6-methoxypyrimidin-4-yl)-N-(p-tolyl)hydrazine Carbothioamide], the results for the IC50 at α-amylase and on α-glucosidase were 34.24 ± 0.16 µM and 36.14 ± 0.12 µM, respectively.

For the molecule `COc1cc(NNC(=S)Nc2cccc(C#N)c2)nc(N)n1` [Compound 17, 2-(2-Amino-6-methoxypyrimidin-4-yl)-N-(3-cyanophenyl)hydrazine Carbothioamide], the figures for the IC50 on α-amylase and on α-glucosidase were 40.16 ± 0.11 µM and 42.19 ± 0.13 µM, respectively.
